Like-named read-outs stand apart in the source and are kept apart here.
Experiments:
Format in all cases: cell-based
RAW264.7 cells = experiment: Cell viability (MTT) of RAW264.7 cells; details: for Cell Viability (%) mean: Test Con. 10 μM, MTT, RAW264.7 cells, percentage of viable LPS-stimulated cells; for toxic activity toward RAW264.7 cells (in words): Table 2, 10 μM
Procedure: (§1) RAW264.7 cells (1.6×10^5 cells/well) or HEK 293 cells (2.5-5.0×10^4 cells/well) were seeded in 96-well plate overnight and treated with different compounds for 16-24 hours. Cells' growth were determined by MTT-based colorimetric assays. Viability of the test cells treated with vehicle (0.5% DMSO) only was defined as 100% viable. Survival of cells after treatment with DETDs was calculated using the following formula: viable cell number (%)=OD570 (treated cell culture)/OD570 (vehicle control)×100.
(§2) The cell viability assay was performed by the MTT method, in which cells were incubated with 45 μl of 5 mg/ml MTT for 1 hour at 37° C., and 150 μl of DMSO was added at the end of culture to dissolve the crystals. The signals of individual samples in 96-well plates were detected at O.D.570 nm with a Molecular Devices SpectraMax i3 Imaging Cytometer. Cell viability was expressed in percentage of viable LPS-stimulated cells.

HEK293 cells = experiment: Cell viability (MTT) of the TLR4-expressing HEK293 cells; details: Test Con. 10 μM, percentage of viable LPS-stimulated cells
Procedure: as §1
as §2, with “method. Cells” for “method, in which cells”

[1] = tested on: mTNF-α secretion from LPS-stimulated RAW264.7 monocytes; experiment: LPS induced mTNF-α release from RAW264.7 cells (ELISA); details: Mus musculus
Procedure: To confirm whether the inhibitory effect of the selected compounds of example 2.1 (i.e., Compounds 12, 15, 19, 20, 22, 24, 28, 30, 32, 34, 36, 38, 40, 42, 44, 45, 49, 50, 52 and 70) translates to anti-inflammation, they were further tested to see if any of them may suppress mTNF-α secretion from lipopolysaccharide (LPS)-stimulated RAW264.7 monocytes.
To this purpose, RAW264.7 cells were seeded at 1.6×10^5 cells/well into 96-well culture plates. Test compounds (i.e., Compounds 12, 15, 19, 20, 22, 24, 28, 30, 32, 34, 36, 38, 40, 42, 44, 45, 49, 50, 52 and 70, respectively at 10 μM) were added into the culture plates in triplicate and co-cultured at 37° C. in 5% CO2 for 30 minutes. LPS (final conc. 10 ng/ml/well) was then added into the culture plates and the cells were incubated for another 4 hours. At the end of culture, the cultured media were harvested for mTNF-α quantification by ELISA with commercial assay kits (R&D Systems, Minneapolis, Minn.) following the manufacturer's protocol. Signals of the individual samples in 96-well plates were detected at O.D.450 nm/570 nm with a Molecular Devices SpectraMax i3 Imaging Cytometer. The mTNF-α activity was expressed in percentage of viable LPS-stimulated cells without test compound treatment.

[2] = target: T1, Toll-like receptor 4 (TLR4) (Homo sapiens, UniProt O00206); experiment: TLR4 activity: NF-κB-inducible SEAP reporter in LPS-stimulated TLR4-expressing HEK293 cells; details: for inhibition at 10 µM: Test Con. 10 μM, LPS 10 ng/ml, 16-24 hours, HEK293 cells expressing TLR4, read-out: TLR-4 inhibition (%) mean; for activity towards TLR-4 (in words): summary of Table 1 (10, 20 or 100 μM)
T1 construct: expressed in transfected cells; host or cells: HEK293 cells engineered to express TLR4
Procedure: Stimulation of the Toll-like receptor 4 (TLR4) was determined by assessing activation of the transcription factor NF-κB in HEK293 cells that were engineered to express TLR4. Assessment of TLR4 stimulation was based on the use of an NE-κB-inducible secreted alkaline phosphatase (SEAP) reporter system in which the SEAP reporter was under the control of a promoter inducible by NF-κB. Thus, the degree of activation of TLR4 can be indirectly quantified spectrophotometrically by measuring the amount of the SEAP reporter that is produced.
The TLR4-expressing cells were plated in HEK-Blue Detection (Invivogen, San Diego, Calif.) medium in a 96-well plate (25,000-50,000 cells/well). The cells were stimulated with lipopolysaccharides (LPS) alone or in combination with the compound of Example 1. Cell culture without LPS and the compound of Example 1 was defined as baseline control. To test whether the compound of Example 1 could block that activation of the TLR4, the cells were treated with the designated compound (10, 20 or 100 μM) and LPS (final conc. 10 ng/ml/well). After an incubation period (16-24 hours) at 37° C. in a CO2 incubator, the signals of individual samples in 96-well plates were detected at O.D.650 nm with a Molecular Devices SpectraMax i3 Imaging Cytometer. The TLR4 activity was expressed in percentage of LPS alone-stimulated cells minus baseline control.

[3] = RAW264.7, Table 2, 10 μM, read-out: inhibition of LPS induced mTNF-α release from RAW264.7 cells
[4] = Test Con. 10 μM, LPS 10 ng/ml, 4 hours, RAW264.7 cells, read-out: mTNF-α inhibition (%) mean

T1 sequence (O00206 24-839, species assumed): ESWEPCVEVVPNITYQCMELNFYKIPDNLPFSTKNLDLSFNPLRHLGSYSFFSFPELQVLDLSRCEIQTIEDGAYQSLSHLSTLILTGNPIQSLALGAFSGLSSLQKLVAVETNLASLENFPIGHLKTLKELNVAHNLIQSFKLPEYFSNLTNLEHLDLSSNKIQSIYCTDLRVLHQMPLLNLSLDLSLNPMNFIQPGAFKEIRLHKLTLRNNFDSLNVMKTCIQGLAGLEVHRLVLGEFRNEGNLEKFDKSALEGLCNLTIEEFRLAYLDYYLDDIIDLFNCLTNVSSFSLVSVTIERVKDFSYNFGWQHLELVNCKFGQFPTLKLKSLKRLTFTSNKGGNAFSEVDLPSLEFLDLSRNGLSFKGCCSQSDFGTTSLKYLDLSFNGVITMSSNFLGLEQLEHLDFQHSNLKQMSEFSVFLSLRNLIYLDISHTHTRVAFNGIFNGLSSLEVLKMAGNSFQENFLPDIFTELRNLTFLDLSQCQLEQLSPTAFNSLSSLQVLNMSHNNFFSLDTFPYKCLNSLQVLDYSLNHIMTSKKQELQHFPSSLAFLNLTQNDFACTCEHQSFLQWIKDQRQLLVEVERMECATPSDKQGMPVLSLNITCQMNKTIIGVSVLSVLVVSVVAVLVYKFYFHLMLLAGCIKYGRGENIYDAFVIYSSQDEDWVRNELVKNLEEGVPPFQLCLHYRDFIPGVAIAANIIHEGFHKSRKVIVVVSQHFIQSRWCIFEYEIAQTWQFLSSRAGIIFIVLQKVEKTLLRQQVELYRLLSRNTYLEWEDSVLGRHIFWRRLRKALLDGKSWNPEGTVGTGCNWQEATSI
T1 sequence (Q9Y6Y9 17-160 partner limits assumed, species assumed): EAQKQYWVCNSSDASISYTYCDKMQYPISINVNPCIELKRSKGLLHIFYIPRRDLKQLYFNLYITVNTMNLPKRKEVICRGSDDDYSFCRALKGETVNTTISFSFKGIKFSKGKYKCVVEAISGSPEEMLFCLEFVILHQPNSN

| inhibition at 10 µM [2] [%] | activity towards TLR-4 (in words) [2] | SMILES | Cell Viability (%) mean (RAW264.7 cells) [%] | Cell Viability (%) mean (HEK293 cells) [%] | inhibition at 10 µM [1, 3] [%] | inhibition at 10 µM [1, 4] [%] | toxic activity toward RAW264.7 cells (in words) (RAW264.7 cells) |
| --- | --- | --- | --- | --- | --- | --- | --- |
| 100 | strong antagonist | C=CC(=O)N(c1ccc(F)cc1Cl)S(=O)(=O)N1CCOC1=O [Compound 38] | 48.0 | 61.6 | 85 to 100 | 97.1 | – |
| 76.2 | moderate inhibitory activity | C=CC(=O)N(c1ccc(F)cc1Cl)S(=O)(=O)N1CCC[C@H]1C(=O)OC [Compound 49] | 81.6 | 108.5 | 85 to 100 | 98.8 | negligible to no toxic activity |
| 100 | strong antagonist | C=CC(=O)Nc1ccccc1S(=O)(=O)Nc1ccc(F)cc1Cl [Compound 44] | 96.1 | 81.4 | 85 to 100 | 94.1 | negligible to no toxic activity |
| 100 | strong antagonist | C=CC(=O)c1ccccc1S(=O)(=O)N(C)c1ccccc1 [Compound 70] | 69.6 | 79.7 | 85 to 100 | 100 | – |
| 65.6 | moderate inhibitory activity | C=C(C)C(=O)Nc1ccccc1S(=O)(=O)Nc1ccc(F)cc1Cl [Compound 45] | 98.3 | 100.7 | ~40 | 41.1 | negligible to no toxic activity |
